Results reported in patent publication US20220387405A1, “METHODS OF TREATMENT WITH N-((R)-1-(3-CHLOROPYRIDIN-2-YL)-2,2,2-TRIFLUOROETHYL)-2-((S)-2,6-DIOXOPIPERIDIN-3-YL)-1-OXOISOINDOLINE-5-CARBOXAMIDE” (CELGENE CORPORATION, priority 2021, published 2022).

How the values were obtained:
[1] = Nonclinical pharmacokinetics in rats; assay type: in vivo
Excerpt: The systemic clearance of Compound 1 was low and the volume of distribution was high in rats and monkeys. […] Notable sex differences in PK were not observed in either species. Compound 1 had good oral bioavailability (≥50%) in rats and monkeys.

[2] = system: AML cell lines with TP53 loss or mutation; test: Activity against AML cell lines with TP53 loss or mutation; assay type: cell-based
Excerpt: (§1) The remaining 5 cell lines were either medium-sensitive or completely resistant to Compound 1; the unresponsiveness to Compound 1 treatment was associated with inadequate accumulation of p53 protein and/or its transcriptional targets BAX and PUMA.

[3] = target: T1, cloned hERG potassium channel expressed in the HEK-293 cell line (Homo sapiens, UniProt Q12809); test: hERG IonWorks Barracuda patch clamp electrophysiology assay; assay type: cell-based
T1 construct: expressed in transfected cells; host or cells: HEK-293
T1 sequence (Q12809 whole entry): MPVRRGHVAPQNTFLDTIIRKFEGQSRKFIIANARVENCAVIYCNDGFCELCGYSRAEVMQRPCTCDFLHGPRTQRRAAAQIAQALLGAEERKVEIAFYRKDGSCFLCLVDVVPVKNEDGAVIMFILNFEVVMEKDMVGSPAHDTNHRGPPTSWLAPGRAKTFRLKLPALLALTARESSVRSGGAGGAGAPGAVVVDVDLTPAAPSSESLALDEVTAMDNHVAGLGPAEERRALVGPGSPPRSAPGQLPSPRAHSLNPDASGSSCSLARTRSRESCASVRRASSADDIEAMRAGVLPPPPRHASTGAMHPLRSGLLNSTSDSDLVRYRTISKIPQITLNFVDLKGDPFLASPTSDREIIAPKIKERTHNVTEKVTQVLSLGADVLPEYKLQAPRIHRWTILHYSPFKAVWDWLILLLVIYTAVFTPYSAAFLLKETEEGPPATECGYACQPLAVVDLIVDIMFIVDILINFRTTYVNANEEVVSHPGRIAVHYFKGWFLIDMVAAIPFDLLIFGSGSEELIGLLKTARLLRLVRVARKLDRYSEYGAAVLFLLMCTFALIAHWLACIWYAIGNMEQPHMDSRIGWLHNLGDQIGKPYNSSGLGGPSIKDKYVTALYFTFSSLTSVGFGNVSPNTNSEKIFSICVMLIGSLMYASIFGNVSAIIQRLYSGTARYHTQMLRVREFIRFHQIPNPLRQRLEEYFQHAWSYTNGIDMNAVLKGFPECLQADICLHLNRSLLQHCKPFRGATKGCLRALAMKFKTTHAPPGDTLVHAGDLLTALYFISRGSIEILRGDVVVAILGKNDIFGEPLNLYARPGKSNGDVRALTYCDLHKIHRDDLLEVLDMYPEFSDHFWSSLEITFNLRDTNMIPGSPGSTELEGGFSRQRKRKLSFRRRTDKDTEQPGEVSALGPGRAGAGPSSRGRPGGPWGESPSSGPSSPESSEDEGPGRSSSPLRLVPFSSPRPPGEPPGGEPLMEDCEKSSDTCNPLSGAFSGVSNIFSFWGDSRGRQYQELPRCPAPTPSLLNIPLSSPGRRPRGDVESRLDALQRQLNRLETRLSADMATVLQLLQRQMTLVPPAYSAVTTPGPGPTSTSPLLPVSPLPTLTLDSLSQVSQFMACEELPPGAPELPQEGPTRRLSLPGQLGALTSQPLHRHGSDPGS
Experimental: (§2) The effect of Compound 1 on the cloned hERG potassium channel expressed in the HEK-293 cell line was also investigated. […] The percent inhibition at 30 μM was 19%.

hERG potassium channel = target: T2, hERG potassium channel (Homo sapiens, UniProt Q12809); test: as above; assay type: cell-based; settings: human, HEK-293 cells expressing cloned hERG potassium channel; at 30 μM; read-out: percent inhibition
T2 construct: expressed in transfected cells; host or cells: HEK-293
T2 sequence (Q12809 whole entry): as above
Experimental: as §2

CYP1A2 = target: T3, CYP1A2 (Homo sapiens, UniProt P05177); test: CYP inhibition in human liver microsomes, CYP1A2; assay type: in vitro ADME
T3 construct: In human liver microsomes; from tissue; host or cells: human liver microsomes
T3 sequence (P05177 whole entry): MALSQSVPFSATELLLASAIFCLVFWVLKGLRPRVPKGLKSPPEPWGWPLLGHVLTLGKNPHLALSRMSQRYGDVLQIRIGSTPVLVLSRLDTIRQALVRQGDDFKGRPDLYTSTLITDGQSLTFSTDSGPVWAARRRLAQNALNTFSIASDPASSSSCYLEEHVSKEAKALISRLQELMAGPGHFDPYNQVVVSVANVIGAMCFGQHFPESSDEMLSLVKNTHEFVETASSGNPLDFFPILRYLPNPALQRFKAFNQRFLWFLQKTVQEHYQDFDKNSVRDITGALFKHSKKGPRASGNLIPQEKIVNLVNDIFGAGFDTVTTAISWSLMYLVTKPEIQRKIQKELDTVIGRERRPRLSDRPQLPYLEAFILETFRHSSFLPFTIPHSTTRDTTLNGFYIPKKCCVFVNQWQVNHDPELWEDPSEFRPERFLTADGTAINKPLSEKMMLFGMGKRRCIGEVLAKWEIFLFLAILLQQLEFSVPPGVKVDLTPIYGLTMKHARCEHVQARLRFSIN

TP53 WT AML cell lines = test: Cell autonomous activity against TP53 WT AML cell lines; assay type: cell-based
Excerpt: as §1

[4] = system: blasts in TP53 WT AML samples; test: 5-day liquid culture of AML patient BM cells; assay type: cell-based, human
[5] = system: MV-4-11-luc disseminated AML xenograft; test: MV-4-11-luc disseminated AML xenograft model, tumor burden and survival; assay type: in vivo, mice
Experimental: The CK1α degradation activity and subsequent antitumor activity of Compound 1 in vivo was tested in two TP53 WT AML cell line-derived xenograft models. The depth and duration of CK1α degradation was dose-dependent.
In a subsequent study, MV-4-11-luc disseminated AML xenografts were treated with 2 cycles of fixed doses and varying dosing duration (5/28 days, 7/28 days and 14/28 days). […] In Kaplan-Meier survival analysis following cessation dosing, the median survival of the vehicle treated animals was 45.5 days. […] The median survival of animals treated with Compound 1 with 2 cycles of 7/28-days at 10, 30, and 50 mg/kg was 67.5 (p<0.0001), 70 (p<0.0001), and 70 (p<0.0001) days, respectively. For the animals treated with 2 cycles of 14/28-days at 3, 10 and 30 mg/kg was 69.5 (p<0.0001), 94.5 (p<0.0001) and 152 (p<0.0001) days, respectively. For 30 mg/kg with 14/28-day cycle, 4/10 animals remained tumor free at the termination of the study on day 154.

MV4-11 AML cell line = test: Compound washout experiment in MV4-11 (CK1α, p53 and downstream events); assay type: cell-based; settings: 0.3 μM for 12 hours followed by washout

Question: With `O=C1CC[C@H](N2Cc3cc(C(=O)N[C@H](c4ncccc4Cl)C(F)(F)F)ccc3C2=O)C(=O)N1` [Compound 1, N-((R)-1-(3-chloropyridin-2-yl)-2,2,2-trifluoroethyl)-2-((S)-2,6-dioxopiperidin-3-yl)-1-oxoisoindoline-5-carboxamide] as the compound, how does the “accumulation following multiple doses” value [1] read?
Answer: No accumulation

Question: And the systemic clearance [1]?
Answer: low

Question: And the volume of distribution [1]?
Answer: high

Question: And the bioavailability ([1]; rat, in vivo, po)?
Answer: ≥ 50%

Question: What about the half-life ([1]; rat, in vivo, read-out: terminal half-life) of the same compound?
Answer: 1.5 to 1.7 h

Question: And the sensitivity to treatment [2]?
Answer: insensitive

Question: What about the “precipitation in the assay” value ([3]; concentrations up to 30 μM) of the same compound?
Answer: did not precipitate

Question: What about the IC50 ([3]; hERG, IonWorks Barracuda patch clamp) of the same compound?
Answer: > 30000 nM

Question: What about the inhibition at 30 µM (hERG potassium channel) of the same compound?
Answer: 19%

Question: And the time-dependent inhibition (CYP1A2; CYP1A2, 30-minute preincubation with NADPH)?
Answer: not a time-dependent inhibition

Question: And the inhibitory effect (CYP1A2; human liver microsomes, CYP1A2)?
Answer: ≤ 25%

Question: And the “number of cell lines sensitive to Compound 1” value (TP53 WT AML cell lines; of the 13 TP53 WT AML cell lines tested)?
Answer: 8

Question: And the IC50 (TP53 WT AML cell lines; the 8 sensitive of 13 TP53 WT AML cell lines tested)?
Answer: 15 to 500 nM

Question: And the total blast numbers ([4]; 5 days in liquid culture, all TP53 WT AML samples tested, vs vehicle control)?
Answer: deeply decreased

Question: And the IC50 ([4]; liquid culture, apoptosis and cell cycle arrest, all samples)?
Answer: nanomolar range

Question: And the “animals remaining tumor free at termination of the study” value ([5]; 30 mg/kg, 14/28-day cycle, day 154)?
Answer: 4/10

Question: And the median survival ([5]; 2 cycles of 5/28-days at 50 mg/kg, vehicle 45.5 days)?
Answer: 68.5 days

Question: And the median survival ([5]; 2 cycles of 7/28-days at 10 mg/kg)?
Answer: 67.5 days

Question: And the median survival ([5]; 2 cycles of 7/28-days at 30 mg/kg)?
Answer: 70 days

Question: What about the median survival ([5]; 2 cycles of 7/28-days at 50 mg/kg) of the same compound?
Answer: 70 days

Question: And the median survival ([5]; 2 cycles of 14/28-days at 3 mg/kg)?
Answer: 69.5 days

Question: And the median survival ([5]; 2 cycles of 14/28-days at 10 mg/kg)?
Answer: 94.5 days

Question: And the median survival ([5]; 2 cycles of 14/28-days at 30 mg/kg)?
Answer: 152 days

Question: And the tumor burden ([5]; mice with disseminated MV-4-11 AML, dose-, schedule- and duration-dependent)?
Answer: significantly reduced

Question: And the “persistence of p53 downstream events (p21, phosphor-Ser139-Histone H2A.X, caspase 3 cleavage) after washout” value (MV4-11 AML cell line)?
Answer: at least 10 hours
